Data set [1] is described as follows: Stability testing of steroids and NSAIDS combined with 0.6% povidone iodine at room temperature. The method, then:
Steroids and NSAIDS were mixed with PVP-I at the concentration of 0.6% w/w on Day 1. The resultant mixtures will be split to glass vials and stored at room temperature. fluorometholone alcohol, medrysone, prednisone sodium phosphate, rimexolone, hydrocortisone, hydrocortisone acetate, lodoxamide tromethamine, nepafenac, bromfenac, and ketorolac. Testing timepoints included day 0 (Time Zero), and week 4. Tests were conducted at room temperature. The testing samples were analyzed using liquid chromatography and tandem mass spectrometry (LC/MS/MS) methods at Day 0, and Week 4. The steroids and NSAIDS standards were also analyzed and steroids and NSAIDS levels in testing samples were determined.
For Tables VIII-XIII, a: Nominal concentration in HPLC samples; b: Calculated concentration in HPLC samples; c: Dilution factor; d: Calculated concentration in stability samples; e: Spiked 50 μL of H2O and stored at room temperature without PVP-I.

Data set [2] is described as follows: Stability testing of steroids combined with povidone iodine (PVP-I, 0.4%), HPLC/UV with LC-MS/MS confirmation. The conditions noted are these: for degradation products observed: two week and/or one month samples in the presence of PVP-I 0.4%. The procedure:
PVP-I was prepared in water at the concentration of 100 mg/mL (10%). One milliliter of the solution, suspension, or emulsion was mixed with 40 μL of 10% PVP-I in 1.5 mL amber glass vials, followed by storage under both room temperature and 40° C. for 2 weeks and one month. The resultant samples in the presence of PVP-I were analyzed using HPLC. The four steroid levels were measured against the reference standard samples stored under room temperature in the absence of PVP-I (0.4%).
Weigh 1 g of PVP-I and dissolve in 10 mL of water.
Aliquot 1 mL of ophthalmic solution (USP, 0.1%) into eight amber HPLC vials to give the following samples:
Used the resultant samples as time zero samples for HPLC analysis.
The same as Method 1 except the gradient was changed as follows: […]
The software provided with the HPLC system (LCSolution™ software, version 1.23, installed by SHIMADZU) was used to integrate the peak area.
The measured peak area was converted into concentrations (μg/mL) using the following equation: […]
HPLC Methods: The same as HPLC Method 1, 2, and 3 under Section 2.4.
The Day 0, Two Week, and One Month stability test samples were analyzed with reference standard samples (stored at room temperature in the absence of PVP I) using HPLC Method 1. The sample in the absence of PVP-I with the same concentration of dexamethasone phosphate as those stability samples at the presence of PVP-I was stored in the same stability chamber at 40° C. for one month as control sample. The control sample was analyzed under the same conditions. The concentrations of dexamethasone phosphate in the stability samples were calculated. The HPLC/UV chromatograms of all reference standards and stability testing samples are depicted in FIG. 6 to FIG. 13.
(§1) The Day 0, Two Week, and One Month stability test samples were analyzed with reference standard samples (stored at room temperature in the absence of PVP I) using HPLC Method 2. The sample in the absence of PVP-I with the same concentration of prednisolone acetate as those stability samples at the presence of PVP-I was stored in the same stability chamber at 40° C. for two week and one month as control samples. The control samples were analyzed under the same conditions. The concentrations of prednisolone acetate in the stability samples were calculated. The data were summarized in Table V. The HPLC/UV chromatograms of all reference standards and stability testing samples are depicted in FIG. 18 to FIG. 23.
as §1, with “3.” for “2.”, “loteprednol etabonate” for “prednisolone acetate”, “calculated.” for “calculated. The data were summarized in Table V.”, “28” for “18”, “33.” for “23.”
The Day 0, Two Week, and One Month stability test samples were analyzed with reference standard samples (stored at room temperature in the absence of PVP I) using HPLC Method 3. The sample in the absence of PVP-I with the same concentration of difluprednate as those stability samples at the presence of PVP-I was stored in the same stability chamber at 40° C. for two week and one month as control samples. The control samples were analyzed under the same conditions. The concentrations of difluprednate in the stability samples were calculated.

The mark [3] stands for this setting: Day 0, room temperature, 0.6% PVP-I, mean of replicates.
Where [4] appears, read: Day 0, room temperature, 0.6% PVP-I, single replicates.
[5] abbreviates: four weeks control, spiked 50 μL of H2O, room temperature without PVP-I.
The mark [6] stands for this setting: four weeks, room temperature, 0.6% PVP-I, mean of replicates.
Setting [7] is: four weeks, room temperature, 0.6% PVP-I, single replicates.
Where [8] appears, read: 2 weeks, 40° C., with PVP-I 0.4%.
Where [9] appears, read: 2 weeks, room temp, with PVP-I 0.4%.
Where [10] appears, read: one month, 40° C., with PVP-I 0.4%, mean of two runs.
The mark [11] stands for this setting: one month, 40° C., with PVP-I 0.4%, single samples.
The mark [12] stands for this setting: one month, room temp, with PVP-I 0.4%.
The mark [13] stands for this setting: 2 weeks, 40° C. control, stored without PVP-I.
Setting [14] is: Day 0, room temp, with PVP-I 0.4%, mean of replicates.
[15] abbreviates: Day 0, room temp, with PVP-I 0.4%, single replicates.
Setting [16] is: one month, 40° C. control, stored without PVP-I.

Each structure is given as a SMILES string. Several values for one entry are separate records, joined by “and”; a condition that tells them apart may be missing. Equal entries are not always repeated.

As to `Nc1c(CC(=O)O)cccc1C(=O)c1ccc(Br)cc1` [Bromfenac, bromfenac], the “% of Std” value was 98.86% in data set [1] (setting [3]); 99.74% and 97.96% in data set [1] (setting [4]); 100.03% in data set [1] (setting [5]); 98.23% in data set [1] (setting [6]); 98.87% and 97.6% in data set [1] (setting [7]). The “% of Day 0” value in data set [1] (setting [5]) is 101.19%; in data set [1] (setting [6]), 99.37%; in data set [1] (setting [7]), 100.01% and 98.73%.
On to `C[C@@H]1C[C@H]2[C@@H]3CCC4=CC(=O)C=C[C@]4(C)[C@@]3(F)[C@@H](O)C[C@]2(C)[C@@]1(O)C(=O)COP(=O)([O-])[O-].[Na+].[Na+]` [Dexamethasone Sodium Phosphate], for which the “% of Day 0” value in data set [2] (setting [8]) was 84.57%; in data set [2] (setting [9]) it was 83.04%; in data set [2] (setting [10]) it was 84.09%; in data set [2] (setting [11]) it was 84.42% and 83.76%; in data set [2] (setting [12]) it was 84.24%. Besides, the “stability in the presence of PVP-I (result in words)” value in data set [2] (PVP-I 0.4%, room temperature and 40° C., up to one month) is on record as “not stable”. Further, the “% of Std” value in data set [2] (setting [10]) is given as 87.00%. Also, the degradation products observed entry was “three additional peaks” in data set [2]; “Three degradation products (D1, D2, and D3) were observed” in data set [2] (listed as dexamethasone phosphate).
With `CCCC(=O)O[C@]1(C(=O)COC(C)=O)CC[C@H]2[C@@H]3C[C@H](F)C4=CC(=O)C=C[C@]4(C)[C@@]3(F)[C@@H](O)C[C@@]21C` [Difluprednate], the “% of Day 0” value in data set [2] (setting [13]) turned out to be 89.50%; in data set [2] (setting [8]), 99.30%; in data set [2] (setting [9]), 103.23%; in data set [2] (setting [16]) it was 97.86%; in data set [2] (setting [11]) it was 100.24%; in data set [2] (setting [12]), 104.47%. Further, the “% of Std” value in data set [2] (setting [13]) was 89.50%; in data set [2] (setting [8]), 95.57%; in data set [2] (setting [9]) it was 99.36%; in data set [2] (setting [14]), 96.25%; in data set [2] (setting [15]), 95.78% and 96.72%; in data set [2] (setting [16]), 97.86%. Further, the “% of Std” value in data set [2] (setting [11]) amounted to 96.48%; in data set [2] (setting [12]), 100.56%.
On to `CC(=O)[C@@]1(O)CC[C@H]2[C@@H]3C[C@H](C)C4=CC(=O)C=C[C@]4(C)[C@@]3(F)[C@@H](O)C[C@@]21C` [Fluorometholone, fluorometholone], for which the “% of Std” value in data set [1] (setting [3]) is 101.28%; in data set [1] (setting [4]), 101.42% and 101.14%; in data set [1] (setting [5]), 99.22%; in data set [1] (setting [6]), 99.7%; in data set [1] (setting [7]), 99.28% and 100.14%. The “% of Day 0” value in data set [1] (setting [5]) was 97.97%; in data set [1] (setting [6]) it was 98.44%; in data set [1] (setting [7]), 98.03% and 98.87%.
Consider `CC(=O)OCC(=O)[C@@]1(O)CC[C@H]2[C@@H]3CCC4=CC(=O)CC[C@]4(C)[C@H]3[C@@H](O)C[C@@]21C` [Hydrocortisone acetate, hydrocortisone acetate], for which the “% of Std” value is 100.57% in data set [1] (setting [3]); 101.62% and 99.52% in data set [1] (setting [4]); 101.66% in data set [1] (setting [5]); 101.53% in data set [1] (setting [6]); 101.15% and 101.91% in data set [1] (setting [7]). Further, the “% of Day 0” value was 101.08% in data set [1] (setting [5]); 100.95% in data set [1] (setting [6]); 100.58% and 101.33% in data set [1] (setting [7]).
On to `CCOC(=O)O[C@]1(C(=O)OCCl)CC[C@H]2[C@@H]3CCC4=CC(=O)C=C[C@]4(C)[C@H]3[C@@H](O)C[C@@]21C` [Loteprednol Etabonate], for which the “% of Day 0” value in data set [2] (setting [13]) was 101.69%; in data set [2] (setting [8]), 100.07%; in data set [2] (setting [9]) it was 101.43%; in data set [2] (setting [16]), 97.64%; in data set [2] (setting [11]), 96.02%; in data set [2] (setting [12]) it was 100.72%. Moreover, the “% of Std” value in data set [2] (setting [13]) was 101.69%; in data set [2] (setting [8]) it was 100.54%; in data set [2] (setting [9]), 101.91%; in data set [2] (setting [14]) it was 100.48%; in data set [2] (setting [15]), 101.00% and 99.95%; in data set [2] (setting [16]) it was 97.64%. Moreover, the “% of Std” value is recorded as 96.48% in data set [2] (setting [11]) and 101.20% in data set [2] (setting [12]).
As to `NC(=O)Cc1cccc(C(=O)c2ccccc2)c1N` [Nepafenac, nepafenac], the “% of Std” value in data set [1] (setting [3]) was 98.7%; in data set [1] (setting [4]), 98.22% and 99.18%; in data set [1] (setting [5]), 98.76%; in data set [1] (setting [6]), 95.94%; in data set [1] (setting [7]), 96.56% and 95.32%. Moreover, the “% of Day 0” value is 100.06% in data set [1] (setting [5]); 97.2% in data set [1] (setting [6]); 97.83% and 96.58% in data set [1] (setting [7]).
On to `CC(=O)OCC(=O)[C@@]1(O)CC[C@H]2[C@@H]3CCC4=CC(=O)C=C[C@]4(C)[C@H]3[C@@H](O)C[C@@]21C` [Prednisolone Acetate], for which the “% of Day 0” value amounted to 100.74% in data set [2] (setting [13]); 96.60% in data set [2] (setting [8]); 99.24% in data set [2] (setting [9]); 100.29% in data set [2] (setting [16]); 96.79% in data set [2] (setting [11]); 95.66% in data set [2] (setting [12]). The “% of Std” value in data set [2] (setting [13]) is 100.74%; in data set [2] (setting [8]), 101.08%; in data set [2] (setting [9]), 103.84%; in data set [2] (setting [14]), 104.64%; in data set [2] (setting [15]) it was 104.83% and 104.45%; in data set [2] (setting [16]) it was 100.29%. Further, the “% of Std” value came to 101.28% in data set [2] (setting [11]) and 100.10% in data set [2] (setting [12]).
`C[C@]12C=CC(=O)C=C1CC[C@@H]1[C@@H]2C(=O)C[C@@]2(C)[C@H]1CC[C@]2(O)C(=O)COP(=O)([O-])[O-].[Na+].[Na+]` [Prednisone sodium phosphate, prednisone sodium phosphate]: the “% of Std” value in data set [1] (setting [3]) is 97.76%; in data set [1] (setting [4]) it was 97.93% and 97.59%; in data set [1] (setting [5]), 100.57%; in data set [1] (setting [6]), 93.52%; in data set [1] (setting [7]), 92.97% and 94.07%. Moreover, the “% of Day 0” value is 102.87% in data set [1] (setting [5]); 95.66% in data set [1] (setting [6]); 95.1% and 96.23% in data set [1] (setting [7]).
For the compound `CCC(=O)[C@@]1(C)[C@H](C)C[C@H]2[C@@H]3CCC4=CC(=O)C=C[C@]4(C)[C@H]3[C@@H](O)C[C@@]21C` [Rimexolone, rimexolone], the “% of Std” value in data set [1] (setting [3]) is 99.67%; in data set [1] (setting [4]), 98.83% and 100.5%; in data set [1] (setting [5]), 97.09%; in data set [1] (setting [6]) it was 99.55%; in data set [1] (setting [7]) it was 99.9% and 99.2%. For the same compound, the “% of Day 0” value in data set [1] (setting [5]) is 97.41%; in data set [1] (setting [6]) it was 99.88%; in data set [1] (setting [7]), 100.23% and 99.53%.

The values are drawn from patent publication US20150038473A1, “STABLE POVIDONE-IODINE COMPOSITIONS WITH STEROIDS OR NON-STEROIDAL ANTI-INFLAMMATORIES” (FORESIGHT BIOTHERAPEUTICS, INC., priority 2011, published 2015).
